Assay results: patent US7645882B2, “Inhibitor of protein modification products formation” (priority 2003, dated 2010)

Columns and labels:
[1] = tested on: middle cerebral artery ischemia-reperfusion model; test: Cerebroprotective action in middle cerebral artery ischemia-reperfusion model; assay type: in vivo, rat; settings: for rotor rod test, ratio to before occlusion (%), Ave: reperfusion vs before occlusion
Procedure: CD(SD)IGS male rats (Japan Charles river Kabushiki kaisha, Hino farm, room No. 22, specific product) (8 rats per one group) having body weight 270 to 350 g were anesthetized by 2% isoflurane (mixed bas comprising of 70% N2O (laughter gas) and 30% O2) to immobilize, and then the rats were put on warming plate to keep the rectal and brain temperature 37 to 38° C. After that, to observe the stability in the examination, cannula which was made by polyethylene (PE-50, Becton Dickinson) was inserted and left in caudal artery of said animal, and this made blood drawing and blood pressure determining to monitor the biochemical parameter such as blood sugar level, hematocrit, CO2 concentration, oxygen partial pressure, pH, blood pressure and etc. In addition, cerebral blood flow in cortex was determined by laser doppler fluorometry (Neuroscience.inc: OMEGA FLOW (FLO-C1)), putting the detection site directly on cranium on the point left 4 mm from bregma. Left neck of such animal was incised, and from internal and external carotid fork of common carotid artery to upstream of internal carotid, nylon surgical thread (length 16 mm, diameter 0.2 to 0.3 mm, with silicon coating on its tip 3 mm) was passed and left, middle cerebral artery was obstructed for 2 hours. After that, the thread was removed to release the middle cerebral artery, and blood was reperfused for 21 hours. To each animals, 3.0 mg/kg of edaravone (control) and 5.58 mg/kg of TM-2002 were respectively administered twice by cannula which is left in caudal artery 5 minutes and 5 hours after middle cerebral artery occlusion. After said operation, the brain was removed from said animal, and after preparing 7 brain slices with 2 mm thickness, to TTC stain (0.8 g of 2,3,5-triphenyltetrazolium chloride (Sigma) dissolved in 40 ml of saline) were soaked at 37° C. for 15 minutes to stain, the area of infarction and fixed by 10% neutral formalin liquid to prepare specimen. Such specimens were created the image by CCD camera respectively, and analysed according to method of Swanson et al. (J Cereb Blood Flow Metab 10:290-293; 1994). […] Furthermore, function recovering was estimated before and after the operation by rotor rod test that estimates how much they can walk on rotating rotor.

pentosidine = test: Pentosidine production inhibiting effect with BSA and arabinose; assay type: biochemical; settings: BSA and arabinose instead of plasma
Procedure: Fresh heparinized plasma samples were obtained after informed consent from hemodialysis patients prior to the dialysis session, and filtrated and sterilized. To the plasma (450 μL), there was added the solution of TM-2002 in dimethylsurphoxide (50 μL) (final concentration: 0.8, 2.0, 5.0 mM) incubated at 37° C. for one week. Then, the amount of pentosidine was measured.
Measurement of the amount of pentosidine was made as follows: to each incubated sample (50 μL) was added an equal volume of 10% trichloroacetic acid, followed by centrifugation at 5000 g for 5 minutes; after removal of the supernatant, the pellet was washed by 5% trichloroacetic acid (300 μL); the pellet was dried under reduced pressure and then subjected to hydrolysis in 6N HCl solution (100 μL) at 110° C. under nitrogen atmosphere for 16 hours; to the hydrolysate, 5N NaOH (100 μL) and 0.5 M phosphate buffer (pH 7.4) (200 μL) were added, followed by filtration through a porefilter with a pore size of 0.5 μm and dilution with PBS. The concentration of free pentosidine was determined by reversed-phase HPLC using a fluorescence detector (Miyata, T. et al.: Proc. Natl. Acad. Sci. USA, Vol. 93, p. 2353-2358, 1996). The effluent was monitored at 335/385 nm of excitation/emission wavelength. Synthetic pentosidine was used as the standard. The detection limit of pentosidine was 0.1 pmol/mg protein.
The plasma from patients was substituted to BSA and arabinose, and the pentosidine production inhibiting effect of another compounds (I) or (II) was measured in the same manner as [Test Examination 1]. Therein, “-” means that the examination was not carried out.

Cc1ncc2c(c1O)C(c1c(C)nn(-c3ccccc3)c1O)OC2 (stereo not drawn) [TM-3001, 1-(5-hydroxy-3-methyl-1-phenyl-1H-pyrazol-4-yl)-6-methyl-1,3-dihydro-furo[3,4-c]pyridin-7-ol]
Nervous condition estimation test, Ave (grading system of Bederson et al.) ([1]; after occlusion 10 min): 2.8 | Nervous condition estimation test, Ave (grading system of Bederson et al.) ([1]; after occlusion 2 hrs): 2.6 | Nervous condition estimation test, Ave (grading system of Bederson et al.) ([1]; after reperfusion 10 min): 1.5 | Nervous condition estimation test, Ave (grading system of Bederson et al.) ([1]; after reperfusion 3 hrs): 1.3 | Nervous condition estimation test, Ave (grading system of Bederson et al.) ([1]; after reperfusion 4 hrs): 2.0 | Nervous condition estimation test, Ave (grading system of Bederson et al.) ([1]; after reperfusion 22 hrs): 2.0 | rotor rod test, Ave (reading value of count from rotor rod machine) ([1]; before occlusion): 183.4 | rotor rod test, Ave (reading value of count from rotor rod machine) ([1]; reperfusion): 160.6 | rotor rod test, ratio to before occlusion (%), Ave [1]: 78.1%

CCOC(=O)C1=NN(c2ccccc2)/C(=C2\C(=O)N(c3ccccc3)N=C2c2ccccc2)S1 [compound 74, 5-(5-oxo-1,3-diphenyl-1,5-dihydro-pyrazol-4-ylidene)-4-phenyl-4,5-dihydro-[1,3,4]thiazole-2-carboxilic acid-ethyl este]
Pentosidine production rate in 5 mM of medicament (%) (pentosidine): 87.24%

CN(C)c1ccc(/C=C2\C(=O)N(c3ccc(S(N)(=O)=O)cc3)N=C2C(F)(F)F)cc1 [compound 51, 4-[4-(4-dimethylamino-benzylidene)-5-oxo-3-trifluoromethyl-4,5-dihydro-pyrazole-1-yl]-benzenesulfonamide]
Pentosidine production rate in 5 mM of medicament (%) (pentosidine): 41.68%

CC1=NN(c2ccccc2)C(=O)/C1=C/N(C)C [compound 65, 4-dimethylaminomethylene-5-methyl-2-phenyl-2,4-dihydro-pyrazol-3-one]
Pentosidine production rate in 5 mM of medicament (%) (pentosidine): 62.43%

COc1ccc(-c2csc(SC3C(=O)N(c4ccccc4)N=C3C)n2)cc1 (stereo not drawn) [compound 19, 4-[4-(4-methoxy-phenyl)-thiazole-2-yl-sulfanil]-5-methyl-2-phenyl-2,4-dihydro-pyrazol-3-one]
Pentosidine production rate in 5 mM of medicament (%) (pentosidine): 40.19%

CC(=O)NC1C(=O)N(c2ccccc2)N=C1C (stereo not drawn) [compound 12, N-(3-methyl-5-oxo-1-phenyl-4,5-dihydro-1H-pyrazol-4-yl)-acetamide]
Pentosidine production rate in 5 mM of medicament (%) (pentosidine): 54.21%

CC1=NN(c2ccccc2)C(=O)C1 [Edaravone, 3-methyl-1-phenyl-2-pyrazolin-5-one, reference compound]
cerebral infarction nest ([1]; 2 hours occlusion, 21 hours reperfusion, edaravone 3.0 mg/kg, TM-2002 5.58 mg/kg, twice (5 minutes and 5 hours after occlusion), vs excipient): significantly reduced | Nervous condition estimation test, Ave (grading system of Bederson et al.) ([1]; after occlusion 10 min): 2.8 | Nervous condition estimation test, Ave (grading system of Bederson et al.) ([1]; after occlusion 2 hrs): 2.7 | Nervous condition estimation test, Ave (grading system of Bederson et al.) ([1]; after reperfusion 10 min): 2.2 | Nervous condition estimation test, Ave (grading system of Bederson et al.) ([1]; after reperfusion 3 hrs): 2.1 | Nervous condition estimation test, Ave (grading system of Bederson et al.) ([1]; after reperfusion 4 hrs): 2.0 | Nervous condition estimation test, Ave (grading system of Bederson et al.) ([1]; after reperfusion 22 hrs): 1.5 | rotor rod test, Ave (reading value of count from rotor rod machine) ([1]; before occlusion): 197.0 | improvement for nervous condition and recovering the function ([1]; compared to excipient single administration): remarkably shown | rotor rod test, Ave (reading value of count from rotor rod machine) ([1]; reperfusion): 153.1 | rotor rod test, ratio to before occlusion (%), Ave [1]: 160.4%

CC1=NN(c2ccccc2)C(=O)C12C(c1ccccc1)C21C(=O)N(c2ccccc2)N=C1C (stereo not drawn) [compound 30, 4,10-dimethyl-2,8,11-triphenyl-2,3,8,9-tetraza-dispiro[4.0.4.1]undeca-3,9-diene-1,7-dione]
Pentosidine production rate in 5 mM of medicament (%) (pentosidine): 62.43%

CC1=NN(c2ccccc2)C(=O)C1C(c1ccccc1)c1c(C)nn(-c2ccccc2)c1O (stereo not drawn) [compound 9, 4-[(5-hydroxy-3-methyl-1-phenyl-1H-pyrazol-4-yl)-phenyl-methyl]-5-methyl-2-phenyl-2,4-dihydro-pyrazol-3-one]
Pentosidine production rate in 5 mM of medicament (%) (pentosidine): 7.52%

CCc1ccc(N2N=C(C)/C(=C\c3ccc(O)cc3)C2=O)cc1 [compound 48, 2-(4-ethyl-phenyl)-4-(4-hydroxy-benzylidene)-5-methyl-2,4-dihydro-pyrazol-3-one]
Pentosidine production rate in 5 mM of medicament (%) (pentosidine): 0.02%

COC(=O)c1cccc(-c2ccc(/C=C3\C(=O)N(c4ccc(S(N)(=O)=O)cc4)N=C3C)o2)c1 [compound 39, 3-{5-[3-methyl-5-oxo-1-(4-sulfamoyl-phenyl)-1,5-dihydro-pyrazol-4-ylidene-methyl]-furan-2-yl}-benzoic acid-methyl ester]
Pentosidine production rate in 5 mM of medicament (%) (pentosidine): 16.87%

CC1=NN(c2ccc(S(N)(=O)=O)cc2)C(=O)C1=Cc1ccc(O)cc1 [compound 49, 4-[4-(4-hydroxy-benzylidene)-3-methyl-5-oxo-4,5-dihydro-pyrazol-1-yl]-benzenesulfonamide]
Pentosidine production rate in 5 mM of medicament (%) (pentosidine): 7.09%

COC(=O)c1ccc(N2N=C(C)/C(=C/c3ccc4c(c3)OCO4)C2=O)cc1 [compound 40, 4-(4-benzo[1,3]dioxol-5-ylmethylene-3-methyl-5-oxo-4,5-dihydro-pyrazol-1-yl)-benzoic acid-methyl ester]
Pentosidine production rate in 5 mM of medicament (%) (pentosidine): 32.37%

COc1cc(/C=C2/C(=O)N(c3ccc(C(=O)OC(C)C)cc3)NC2C)ccc1O (stereo not drawn) [compound 60, 4-[4-(4-hydroxy-3-methoxy-benzylidene)-3-methyl-5-oxo-pyrazolidin-1-yl]-benzoic acid-isopropyl ester]
Pentosidine production rate in 5 mM of medicament (%) (pentosidine): 9.02%

COc1cc(/C=C2\C(=O)N(c3ccc(Cl)cc3)N=C2C(F)(F)F)ccc1O [compound 47, 2-(4-chloro-phenyl)-4-(4-hydroxy-3-methoxy-benzylidene)-5-trifluoromethyl-2,4-dihydro-pyrazol-3-one]
Pentosidine production rate in 5 mM of medicament (%) (pentosidine): 28.86%

CC1=NN(c2ccccc2)C(=O)/C1=C/c1c(C)nn(-c2ccccc2)c1O [compound 66, 4-(5-hydroxy-3-methyl-1-phenyl-1H-pyrazol-4-yl-methylene)-5-methyl-2-phenyl-2,4-dihydro-pyrazol-3-one]
Pentosidine production rate in 5 mM of medicament (%) (pentosidine): 15.17%

CC1=NN(c2ccc(F)cc2)C(=O)/C1=C\c1c(C)nn(-c2ccccc2C)c1O [compound 46, 2-(4-fluoro-phenyl)-4-(5-hydroxy-3-methyl-1-o-toluyl-1H-pyrazol-4-yl-methylene)-5-methyl-2,4-dihydro-pyrazol-3-one]
Pentosidine production rate in 5 mM of medicament (%) (pentosidine): 15.69%

O=C(NC1=NN(c2ccccc2)C(=O)C1(O)S(=O)(=O)[O-])c1ccccc1.[Na+] (stereo not drawn) [compound 27, sodium 3-benzoylamino-4-hydroxy-5-oxo-1-phenyl-4,5-dihydro-1H-pyrazol-4-sulfonate]
Pentosidine production rate in 5 mM of medicament (%) (pentosidine): 2.83%
